Patent publication US7867979B2, “Drug composition for treating 2 type diabetes and diabetic chronicity complications” (Hainan Deze Drug Research Co., Ltd., priority 2006, dated 2011)

Legend:
aldose reductase (AR) = biological target: T1, aldose reductase (AR) (Rattus norvegicus, UniProt P07943); test: Activity of aldose reductase (AR) of lens in GK rats; type: in vivo, Goto-Kakizaki rats (GK); settings: oral daily 12 weeks, specific activity, in U/mg protein; for AR activity of lens NADH (0.1 mmol/L): NADH 0.1 mmol/L system; for AR activity of lens NADPH (0.1 mmol/L): NADPH 0.1 mmol/L system
T1 construct: from tissue; host or cells: lens of GK (Goto-Kakizaki) and Wistar rats
Method: GK rats control group (n=10); mangiferin groups (10, 30, 200 mg/kg, each group 10 rats); berberine groups (10, 20, 150 mg/kg, each group 10 rats); composition group 1[[mangiferin (10 mg/kg)+berberine (10 mg/kg)], 10 rats]; composition group 2[[mangiferin (200 mg/kg)+berberine (150 mg/kg)], 10 rats]. Wistar rats are normal control group (10 rats). GK rats control group and Wistar rats group were given saline. The other groups were given test drugs. Test samples were administrated orally at the same time every day for 12 weeks. […] At the End of the experiment, the left side lens of rats was taken, then these lenses were added into glycerol and put into refrigerator (−80° C.□) to preserve to determine AR activity. The determination method of AR activity refer to Maragoudakis's method and change slightly, that is: the activity of enzyme is indicated by the record of the absorbance of NADPH in 340 nm decline IOU. […] The second reaction system is 0.1 mmol/L NADH instead of NADPH, the rest of the reagent is same as one of the first response system. The activity of enzyme and the protein content in tissue homogenate are determined at the same time. a unit enzyme activity is indicated by the quantity of the enzyme that produce 1 μmol NADP^+ (or NDA^+) in one minute. […] The results have been calculated as mean±SD ( x±SD) and the comparisons of the data have been done by t-test. There are ten rats in every group. GK rats control group and wistar rats group were given saline. The other groups were given test drugs. Test samples were administrated orally at the same time every day for 12 weeks. The measurements are as same as the above experiment.

Propyl dialdehyde (MDA) = Propyl dialdehyde (MDA) in kidney tissue homogenate of GK rats; type: in vivo, Goto-Kakizaki rats (GK); settings: oral daily 12 weeks
Method: GK rats control group (n=10); mangiferin groups (10, 30, 200 mg/kg, each group 10 rats); berberine groups (10, 20, 150 mg/kg, each group 10 rats); composition group 1[[mangiferin (10 mg/kg)+berberine (10 mg/kg)], 10 rats]; composition group 2[[mangiferin (200 mg/kg)+berberine (150 mg/kg)], 10 rats]. Wistar rats are normal control group (10 rats). GK rats control group and Wistar rats group were given saline. The other groups were given test drugs. Test samples were administrated orally at the same time every day for 12 weeks. 3.3.1 Preparation of tissue homogenate: Rats were killed by femoral artery bloodletting after administration of the rats for 12-weeks. Kidney tissue of the rats were taken, the blood of kidney tissue were washed with cooling saline (4° C.), then the remnant water was absorbed with filter paper, the kidney tissue was weighed. Per gram kidney tissue was added into 10 ml saline, which was put in homogenized machine (10,000 r/min, 10 seconds, 3rd), 10% tissue homogenate was prepared, the tissue homogenate was centrifuged (4000 r/min) for 10 minutes to get supernatant, the supernatant was saved in −20° C. for determination. 3.3.2.2 Propyl dialdehyde (MDA): MDA is determined by TBA, the test box was bought from Nanjing Jiancheng Bioengineering Research Institute. […] The results have been calculated as mean±SD ( x±SD) and the comparisons of the data have been done by t-test. There are ten rats in every group. GK rats control group and wistar rats group were given saline. The other groups were given test drugs. Test samples were administrated orally at the same time every day for 12 weeks. The measurements are as same as the above experiment.

[1] = 2.0 g once orally; cited from earlier work
[2] = in vivo; cited from earlier work
[3] = cited from earlier work
rat = settings: intraperitoneal injection once; cited from earlier work

Structure (SMILES) | AR activity of lens NADH (0.1 mmol/L) (aldose reductase (AR); 10 mg/kg) | AR activity of lens NADPH (0.1 mmol/L) (aldose reductase (AR); 10 mg/kg) | AR activity of lens NADH (0.1 mmol/L) (aldose reductase (AR); 20 mg/kg) | AR activity of lens NADPH (0.1 mmol/L) (aldose reductase (AR); 20 mg/kg) | AR activity of lens NADH (0.1 mmol/L) (aldose reductase (AR); 150 mg/kg) | AR activity of lens NADPH (0.1 mmol/L) (aldose reductase (AR); 150 mg/kg) | Measurements about oxidation MDA (Propyl dialdehyde (MDA); 10 mg/kg) [nmol/mg pro] | Measurements about oxidation MDA (Propyl dialdehyde (MDA); 20 mg/kg) [nmol/mg pro] | Measurements about oxidation MDA (Propyl dialdehyde (MDA); 150 mg/kg) [nmol/mg pro] | Adverse reactions [1] | Bioavailability [2] | AR activity of lens NADH (0.1 mmol/L) (aldose reductase (AR); 30 mg/kg) | AR activity of lens NADPH (0.1 mmol/L) (aldose reductase (AR); 30 mg/kg) | AR activity of lens NADH (0.1 mmol/L) (aldose reductase (AR); 200 mg/kg) | AR activity of lens NADPH (0.1 mmol/L) (aldose reductase (AR); 200 mg/kg) | Measurements about oxidation MDA (Propyl dialdehyde (MDA); 30 mg/kg) [nmol/mg pro] | Measurements about oxidation MDA (Propyl dialdehyde (MDA); 200 mg/kg) [nmol/mg pro] | Solubility in water [3] | LD50 (rat) [mg/kg]
COc1ccc2cc3[n+](cc2c1OC)CCc1cc2c(cc1-3)OCO2 [Berberine] | 2.98 ± 0.60 | 5.64 ± 2.19 | 1.32 ± 0.37 | 2.28 ± 0.51 | 0.94 ± 0.45 | 1.87 ± 0.51 | 4.39 ± 0.90 | 3.51 ± 0.46 | 2.76 ± 0.40 | we don't find any adverse reactions | very low | – | – | – | – | – | – | – | –
O=c1c2cc(O)c(O)cc2oc2cc(O)c([C@@H]3O[C@H](CO)[C@@H](O)[C@H](O)[C@H]3O)c(O)c12 [Mangiferin] | 2.89 ± 0.69 | 5.36 ± 2.17 | – | – | – | – | 4.41 ± 0.87 | – | – | – | – | 1.64 ± 0.42 | 3.05 ± 0.59 | 0.94 ± 0.45 | 1.87 ± 0.51 | 3.48 ± 0.47 | 2.75 ± 0.48 | cannot dissolve in water | 365
